Laboratory results as given in patent US20110015208A1, “PHARMACEUTICAL COMPOSITIONS CONTAINING DOPAMINE RECEPTOR LIGANDS AND METHODS OF TREATMENT USING DOPAMINE RECEPTOR LIGANDS” (priority 2007, published 2011).

Assays:
[1] = system: chronic mild stress (CMS) model of depression; assay: Chronic mild stress (CMS) model of depression, sucrose consumption (Example 2); format: in vivo, rat; details: imipramine 10 mg/kg IP once daily, stressed animals
From the text: This study evaluated the antidepressant effect of cariprazine hydrochloride in the chronic mild stress (CMS) model of depression. A comparison to the efficacy of the tricyciclic antidepressant compound imipramine was also made.
Male Wistar rats were adapted to laboratory and housing conditions for 3 weeks, followed by adoption to consumption of 1% sucrose solution for an additional 5 weeks before being separated into control and to-be-stressed groups.
Chronic stress was applied to the allocated group for seven weeks. The following stressors were used: food and/or water deprivation, cage tilting (45 degrees backwards), intermittent illumination, paired housing, soiled cage (250 mL of tap water in sawdust bedding), stroboscopic illumination (150 flashed per minute), no stress. All stressors were 10-14 hours in duration and were applied individually and continuously, once or twice weekly, during the day and at night.
Consumption of sucrose solution was measured in 1-hour tests conducted on all animals (i.e., controls and stressed) once weekly throughout the entire experiment. The tests were preceded by 14 hours of food and water deprivation. On the basis of their sucrose intakes following the initial 2 weeks of stress, both stressed and control animals received once-daily chronic (5 weeks) IP injections of vehicle (1% methyl cellulose, 1 mL/kg), cariprazine hydrochloride (0.0625, 0.25 or 1.0 mg/kg), or imipramine (10 mg/kg) as reference treatment. […] These animals were considered weak responders/non-responders and were eliminated from the analysis.

[2] = system: chronic mild stress (CMS) model of depression; assay: Chronic mild stress (CMS) model of depression, sucrose consumption (Example 3); format: in vivo, rat; details: imipramine, reference treatment in parallel studies
From the text: Similar to the study described in Example 2, additional studies were undertaken to further evaluate the antidepressant effect of cariprazine hydrochloride, administered alone, or in combination with escitalopram oxalate, in a chronic mild stress model of depression
In the chronic mild stress (CMS) model, rats subjected to a variety of mild stressors for a prolonged period of time show a substantial decrease in their responsiveness to rewarding stimuli. This deficit is usually monitored by a decrease in the consumption of a 1% sucrose solution, but can also be seen in other tests, such as place preference conditioning or intracranial self-stimulation. The subsensitivity to reward appears to reflect anhedonia (inability to experience pleasure), which is a core symptom of major depressive disorders. Clinically approved antidepressants have shown activity in this animal model by reversing the effects of CMS on sucrose consumption. See, e.g., Sanchez C, Gruca P, Papp M, Behavioural Pharmacology 14, 465-470, 2003.
Male Wistar rats (Charles River, Germany) were brought into the laboratory two months before the start of the experiment. Except as described below, the animals were singly housed with food and water freely available, and were maintained on a 12-h light/dark and in a constant temperature (22±2° C.) and humidity (50±5%) conditions.
The animals were first trained to consume a 1% sucrose solution; training consisted of nine 1 h baseline tests in which sucrose was presented, in the home cage, following 14 h food and water deprivation. The sucrose intake was measured by weighing pre-weighed bottles containing the sucrose solution, at the end of the test. Subsequently, sucrose consumption was monitored, under similar conditions, at weekly intervals throughout the whole experiment.
On the basis of their sucrose intakes in the final baseline test, the animals were divided into two matched groups. One group of animals was subjected to the chronic mild stress procedure for a period of 7 consecutive weeks. Each week of stress regime consisted of: two periods of food or water deprivation, two periods of 45 degree cage tilt, two periods of intermittent illumination (lights on and off every 2 h), two periods of soiled cage (250 ml water in sawdust bedding), one period of paired housing, two periods of low intensity stroboscopic illumination (150 flashes/min), and three periods of no stress. All stressors were 10-14 h of duration and were applied individually and continuously, day and night. Control animals were housed in separate rooms and had no contact with the stressed animals. They were deprived of food and water for 14 h preceding each sucrose test, but otherwise food and water were freely available in the home cage.

[3] = system: basal locomotor activity of mice; assay: Open field, basal locomotor activity of mice (Example 4B); format: in vivo, mouse; details: test condition water; 400 mg/kg IP
Description: (§1) Cariprazine hydrochloride and escitalopram oxalate were evaluated for anti-manic effects using the amphetamine/chlordiazepoxide (AMPH/CDP) hyperactivity test.
(§2) Male C57B1/6J mice (8 weeks old) from Jackson Laboratories (Bar Harbor, Me.) were used in this study. Upon receipt, mice were assigned unique identification numbers (tail marked) and were group housed (4 mice/cage) in OPTI mouse ventilated cages. All animals remained housed in groups of four during the remainder of the study. During the period of acclimation, mice were examined on a regular basis, handled, and weighed to assure adequate health and suitability. Mice were maintained on a 12/12 light/dark cycle. The room temperature was maintained between 20 and 23° C. with a relative humidity maintained between 30% and 70%. Chow and water were provided ad libitum for the duration of the study. In each test, animals were randomly assigned across treatment groups.
(§3) Distance traveled is measured by consecutive beam breaks.
(§4) Data was analyzed by analysis of variance (ANOVA) followed by Fisher PLSD post-hoc analysis when appropriate. An effect was considered significant if p<0.05. Outliers that fell above and below two standard deviations from the mean were removed from the final analysis.

[4] = system: basal locomotor activity of mice; assay: Open field, basal locomotor activity of mice (Example 4A); format: in vivo, mouse; details: test condition water; 400 mg/kg IP, 30 min pretreatment
Description: as §1
as §2, with “C57B1/6J mice from Jackson” for “C57B1/6J mice (8 weeks old) from Jackson”, “this study. Mice were received at 6-weeks of age. Upon receipt,” for “this study. Upon receipt,”, “group housed with 4 mice/cage. All animals” for “group housed (4 mice/cage) in OPTI mouse ventilated cages. All animals”, “the study. All mice were acclimated to the colony room for at least two weeks prior to testing and were subsequently tested at an average age of 8 weeks of age. During the” for “the study. During the”
as §3, §4

[5] = system: d-amphetamine/chlordiazepoxide mixture (AMPH/CDP)-induced hyperactivity in mice; assay: d-Amphetamine/chlordiazepoxide (AMPH/CDP) hyperactivity test (Example 4B); format: in vivo, mouse; details: test condition AMPH/CDP; 400 mg/kg IP
Description: as §1, §2
(§5) d-Amphetamine sulfate (Sigma, 4.0 mg/kg) and chlordiazepoxide (CDP; Sigma, 2.5 mg/kg) were dissolved in sterile water and were administered intraperitoneally at a dose volume of 10 ml/kg.
as §3, §4

[6] = system: d-amphetamine/chlordiazepoxide mixture (AMPH/CDP)-induced hyperactivity in mice; assay: d-Amphetamine/chlordiazepoxide (AMPH/CDP) hyperactivity test (Example 4A); format: in vivo, mouse; details: test condition AMPH/CDP; 400 mg/kg IP, 30 min pretreatment
Description: as §1
as §2, with “C57B1/6J mice from Jackson” for “C57B1/6J mice (8 weeks old) from Jackson”, “this study. Mice were received at 6-weeks of age. Upon receipt,” for “this study. Upon receipt,”, “group housed with 4 mice/cage. All animals” for “group housed (4 mice/cage) in OPTI mouse ventilated cages. All animals”, “the study. All mice were acclimated to the colony room for at least two weeks prior to testing and were subsequently tested at an average age of 8 weeks of age. During the” for “the study. During the”
as §5, §3, §4

Row | SMILES | CMS-induced decrease in consumption of 1% sucrose solution ([1]; 5 weeks) | onset of action: effect on sucrose drinking evident at [1] | time until effect on sucrose consumption reached significance [2] | Total Distance Traveled [mean ± SEM] [3] | Total Distance Traveled [mean ± SEM] [4] | Total Distance Traveled [mean ± SEM] [5] | Total Distance Traveled [mean ± SEM] [6]
1 | CN(C)CCCN1c2ccccc2CCc2ccccc21 [imipramine, reference compound] | fully reversed | 3 Week | after three weeks of administration |  |  |  | 
2 | CCCC(CCC)C(=O)O [Valproate] |  |  |  | 3365 ± 612 cm/60 min | 4471 ± 298 cm/60 min | 18478 ± 2961 cm/60 min | 17496 ± 1788 cm/60 min
